Experimental data as given in PubChem BioAssay (NCI).
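Following 48 hours of exposure in 96-well plates, responses at five concentrations were used to interpolate endpoints linearly. At the TGI there is no net growth.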

How the values were obtained:
Test in all cases: growth of human tumour cells (NCI), 48 h
OVCAR-3 ovarian = system: OVCAR-3 ovarian
NCI-H226 lung = system: NCI-H226 lung
PC-3 prostate = system: PC-3 prostate
HL-60(TB) leukemia = system: HL-60(TB) leukemia
MDA-N = system: MDA-N
COLO 205 colon = system: COLO 205 colon
SK-MEL-5 melanoma = system: SK-MEL-5 melanoma
SW-620 colon = system: SW-620 colon
IGROV1 ovarian = system: IGROV1 ovarian
SF-539 CNS = system: SF-539 CNS
CCRF-CEM leukemia = system: CCRF-CEM leukemia
HOP-62 NSCLC = system: HOP-62 NSCLC
LOX IMVI melanoma = system: LOX IMVI melanoma
SK-MEL-28 melanoma = system: SK-MEL-28 melanoma
HS 578T breast = system: HS 578T breast
OVCAR-4 ovarian = system: OVCAR-4 ovarian
MDA-MB-231 breast = system: MDA-MB-231 breast
HT29 colon = system: HT29 colon

`CC(=O)O[C@H]1C[C@H]2[C@@H](OC(C)=O)/C=C3\C[C@](C)(C(=O)[C@H](O)C(=C1C)C2(C)C)[C@@H](O)C[C@@H]3OC(=O)[C@H](O)[C@H](c1ccccc1)N(C)C` was tested, and the TGI (OVCAR-3 ovarian) was > 100 µM, the TGI (NCI-H226 lung) was > 100 µM and the TGI (PC-3 prostate) was > 100 µM. For the same compound, the TGI (HL-60(TB) leukemia) was > 100 µM, the TGI (MDA-N) was > 100 µM and the TGI (COLO 205 colon) was > 100 µM. The TGI (SK-MEL-5 melanoma) was > 100 µM, the TGI (SW-620 colon) was > 100 µM and the TGI (IGROV1 ovarian) was > 100 µM. For the same compound, the TGI (SF-539 CNS) was > 100 µM, the TGI (CCRF-CEM leukemia) was > 100 µM and the TGI (HOP-62 NSCLC) was > 100 µM. For the same compound, the TGI (LOX IMVI melanoma) was > 100 µM, the TGI (SK-MEL-28 melanoma) was > 100 µM and the TGI (HS 578T breast) was > 100 µM. For the same compound, the TGI (OVCAR-4 ovarian) was > 100 µM and the TGI (MDA-MB-231 breast) was > 100 µM.

In the case of `O=Cc1cn(CCCCCCCCCCCCn2cc(C=O)c3ccccc32)c2ccccc12`, the TGI (OVCAR-3 ovarian) is reported as > 100 µM, the TGI (HT29 colon) is reported as > 100 µM and the TGI (NCI-H226 lung) is reported as > 100 µM. The TGI (PC-3 prostate) was > 100 µM, the TGI (HL-60(TB) leukemia) was > 100 µM and the TGI (MDA-N) was > 100 µM. The TGI (COLO 205 colon) was > 100 µM, the TGI (SK-MEL-5 melanoma) was > 100 µM and the TGI (SW-620 colon) was > 100 µM. The TGI (IGROV1 ovarian) was > 100 µM, the TGI (SF-539 CNS) was > 100 µM and the TGI (HOP-62 NSCLC) was > 100 µM. The TGI (LOX IMVI melanoma) was > 100 µM, the TGI (SK-MEL-28 melanoma) was > 100 µM and the TGI (HS 578T breast) was > 100 µM. For the same compound, the TGI (MDA-MB-231 breast) was > 100 µM.

In the case of `CCc1cc2c(oc3cc4ccccc4cc32)c(=O)[nH]1`, the TGI (OVCAR-3 ovarian) is reported as > 10 µM, the TGI (HT29 colon) is reported as > 10 µM and the TGI (NCI-H226 lung) is reported as > 10 µM. The TGI (PC-3 prostate) was > 10 µM, the TGI (HL-60(TB) leukemia) was > 10 µM and the TGI (MDA-N) was > 10 µM. The TGI (SW-620 colon) was > 10 µM, the TGI (IGROV1 ovarian) was > 10 µM and the TGI (SF-539 CNS) was > 10 µM. The TGI (LOX IMVI melanoma) was > 10 µM, the TGI (HS 578T breast) was > 10 µM and the TGI (OVCAR-4 ovarian) was > 10 µM. For the same compound, the TGI (MDA-MB-231 breast) was > 10 µM.

For `CCOC(=O)c1c(-c2ccc(OC)cc2)c(C#N)c(=S)n(C2OC(COC(C)=O)C(OC(C)=O)C(OC(C)=O)C2OC(C)=O)c1-c1ccccc1` (configuration not stated), the TGI (OVCAR-3 ovarian) was > 100 µM, the TGI (HT29 colon) was > 100 µM and the TGI (PC-3 prostate) was > 100 µM. The TGI (HL-60(TB) leukemia) was > 100 µM, the TGI (MDA-N) was > 100 µM and the TGI (SK-MEL-5 melanoma) was > 100 µM. The TGI (SW-620 colon) was > 100 µM, the TGI (IGROV1 ovarian) was > 100 µM and the TGI (SF-539 CNS) was > 100 µM. For the same compound, the TGI (CCRF-CEM leukemia) was > 100 µM, the TGI (HOP-62 NSCLC) was > 100 µM and the TGI (LOX IMVI melanoma) was > 100 µM. The TGI (SK-MEL-28 melanoma) was > 100 µM, the TGI (HS 578T breast) was > 100 µM and the TGI (OVCAR-4 ovarian) was > 100 µM. The TGI (MDA-MB-231 breast) was > 100 µM.

`CCCC(=O)n1[nH]c(=O)n(-c2ccc(Cl)cc2)c1=O` was tested, and the TGI (OVCAR-3 ovarian) was > 100 µM, the TGI (HT29 colon) was > 100 µM and the TGI (NCI-H226 lung) was > 100 µM. For the same compound, the TGI (PC-3 prostate) was > 100 µM, the TGI (HL-60(TB) leukemia) was > 100 µM and the TGI (MDA-N) was > 100 µM. The TGI (COLO 205 colon) was > 100 µM, the TGI (SK-MEL-5 melanoma) was > 100 µM and the TGI (SW-620 colon) was > 100 µM. For the same compound, the TGI (IGROV1 ovarian) was > 100 µM, the TGI (CCRF-CEM leukemia) was > 100 µM and the TGI (HOP-62 NSCLC) was > 100 µM. The TGI (LOX IMVI melanoma) was > 100 µM, the TGI (SK-MEL-28 melanoma) was > 100 µM and the TGI (HS 578T breast) was > 100 µM. The TGI (OVCAR-4 ovarian) was > 100 µM and the TGI (MDA-MB-231 breast) was > 100 µM.

With `COC(=O)CC(C#N)(OP1(=O)OC(c2ccccc2)C(C)N1C)c1ccccc1` (configuration not stated) the TGI (OVCAR-3 ovarian) was 42.6 µM, the TGI (HT29 colon) was 53.2 µM and the TGI (PC-3 prostate) was > 100 µM. For the same compound, the TGI (HL-60(TB) leukemia) was 58 µM, the TGI (MDA-N) was 75.4 µM and the TGI (COLO 205 colon) was > 100 µM. For the same compound, the TGI (SK-MEL-5 melanoma) was > 100 µM, the TGI (SW-620 colon) was 43.6 µM and the TGI (IGROV1 ovarian) was > 100 µM. The TGI (SF-539 CNS) was > 100 µM, the TGI (CCRF-CEM leukemia) was 38.7 µM and the TGI (HOP-62 NSCLC) was > 100 µM. The TGI (LOX IMVI melanoma) was 53.4 µM, the TGI (SK-MEL-28 melanoma) was > 100 µM and the TGI (HS 578T breast) was > 100 µM. For the same compound, the TGI (MDA-MB-231 breast) was > 100 µM.

`O=C1C2CC=CCC2C(=O)N1n1c(Cc2ccc(Cl)cc2)n[nH]c1=O` (configuration not stated) was tested, and the TGI (OVCAR-3 ovarian) was > 100 µM, the TGI (HT29 colon) was > 100 µM and the TGI (NCI-H226 lung) was > 100 µM. The TGI (PC-3 prostate) was > 100 µM, the TGI (HL-60(TB) leukemia) was > 100 µM and the TGI (MDA-N) was > 100 µM. The TGI (COLO 205 colon) was > 100 µM, the TGI (SK-MEL-5 melanoma) was > 100 µM and the TGI (SW-620 colon) was > 100 µM. For the same compound, the TGI (IGROV1 ovarian) was > 100 µM, the TGI (CCRF-CEM leukemia) was > 100 µM and the TGI (HOP-62 NSCLC) was > 100 µM. For the same compound, the TGI (LOX IMVI melanoma) was > 100 µM, the TGI (SK-MEL-28 melanoma) was > 100 µM and the TGI (HS 578T breast) was > 100 µM. For the same compound, the TGI (OVCAR-4 ovarian) was > 100 µM and the TGI (MDA-MB-231 breast) was > 100 µM.

In the case of `CC(C)(C)OC(=O)N1CCc2[nH][nH]c(=O)c2C1`, the TGI (OVCAR-3 ovarian) is reported as > 100 µM, the TGI (HT29 colon) is reported as > 100 µM and the TGI (NCI-H226 lung) is reported as > 100 µM. The TGI (PC-3 prostate) was > 100 µM, the TGI (HL-60(TB) leukemia) was > 100 µM and the TGI (MDA-N) was > 100 µM. The TGI (COLO 205 colon) was > 100 µM, the TGI (SW-620 colon) was > 100 µM and the TGI (IGROV1 ovarian) was > 100 µM. The TGI (SF-539 CNS) was > 100 µM, the TGI (CCRF-CEM leukemia) was > 100 µM and the TGI (HOP-62 NSCLC) was > 100 µM. The TGI (SK-MEL-28 melanoma) was > 100 µM, the TGI (HS 578T breast) was > 100 µM and the TGI (OVCAR-4 ovarian) was > 100 µM. The TGI (MDA-MB-231 breast) was > 100 µM.

With `N#Cc1nc2ccccc2nc1N1CCN(c2ccc([N+](=O)[O-])cc2)CC1` the TGI (HT29 colon) was > 100 µM, the TGI (NCI-H226 lung) was > 100 µM and the TGI (PC-3 prostate) was > 100 µM. For the same compound, the TGI (HL-60(TB) leukemia) was > 100 µM, the TGI (MDA-N) was > 100 µM and the TGI (COLO 205 colon) was > 100 µM. The TGI (SK-MEL-5 melanoma) was > 100 µM, the TGI (SW-620 colon) was > 100 µM and the TGI (IGROV1 ovarian) was > 100 µM. The TGI (CCRF-CEM leukemia) was > 100 µM, the TGI (HOP-62 NSCLC) was > 100 µM and the TGI (LOX IMVI melanoma) was > 100 µM. The TGI (SK-MEL-28 melanoma) was > 100 µM, the TGI (HS 578T breast) was > 100 µM and the TGI (OVCAR-4 ovarian) was > 100 µM. For the same compound, the TGI (MDA-MB-231 breast) was > 100 µM.

For `CN=c1nc2sc3c(c2c(NC(=S)NC)s1)CCCC3`, the TGI (OVCAR-3 ovarian) was > 100 µM, the TGI (HT29 colon) was > 100 µM and the TGI (NCI-H226 lung) was > 100 µM. The TGI (PC-3 prostate) was > 100 µM, the TGI (HL-60(TB) leukemia) was > 100 µM and the TGI (MDA-N) was > 100 µM. The TGI (COLO 205 colon) was > 100 µM, the TGI (SK-MEL-5 melanoma) was > 100 µM and the TGI (SW-620 colon) was > 100 µM. The TGI (IGROV1 ovarian) was > 100 µM, the TGI (CCRF-CEM leukemia) was > 100 µM and the TGI (HOP-62 NSCLC) was > 100 µM. For the same compound, the TGI (LOX IMVI melanoma) was > 100 µM, the TGI (SK-MEL-28 melanoma) was > 100 µM and the TGI (HS 578T breast) was 97.4 µM. For the same compound, the TGI (OVCAR-4 ovarian) was > 100 µM and the TGI (MDA-MB-231 breast) was > 100 µM.

With `NS(=O)(=O)c1ccc(N=Nc2nc3[nH]c(=O)[nH]c(=O)c3[nH]2)cc1` the TGI (OVCAR-3 ovarian) was > 100 µM, the TGI (HT29 colon) was > 100 µM and the TGI (NCI-H226 lung) was > 100 µM. For the same compound, the TGI (PC-3 prostate) was > 100 µM, the TGI (MDA-N) was > 100 µM and the TGI (COLO 205 colon) was > 100 µM. For the same compound, the TGI (SK-MEL-5 melanoma) was > 100 µM, the TGI (SW-620 colon) was > 100 µM and the TGI (IGROV1 ovarian) was > 100 µM. For the same compound, the TGI (SF-539 CNS) was > 100 µM, the TGI (HOP-62 NSCLC) was > 100 µM and the TGI (LOX IMVI melanoma) was > 100 µM. The TGI (SK-MEL-28 melanoma) was > 100 µM, the TGI (HS 578T breast) was > 100 µM and the TGI (OVCAR-4 ovarian) was > 100 µM. For the same compound, the TGI (MDA-MB-231 breast) was > 100 µM.
